Laboratory results: patent US10898504B2, “Substituted nucleoside analogues for use as PRMT5 inhibitors” (Janssen Pharmaceutica NV, priority 2016, dated 2021)
“And” between values parts separate entries of the source, which are not always exact repeats. Identical values can stand only once.

Key:
PRMT5-MEP50 enzyme = biological target: T1, PRMT5-MEP50 enzyme (Homo sapiens, UniProt O14744); assay: In vitro assay (Assay 1): PRMT5-MEP50 high throughput mass spectrometer assay, inhibition of SAH formation; type: biochemical; conditions: individual measurements shown, read-out: pIC50 Assay 1 (converted)
T1 construct: One virus expresses full length human PRMT5 with Flag-tag at N-terminus
T1 sequence (O14744 whole entry): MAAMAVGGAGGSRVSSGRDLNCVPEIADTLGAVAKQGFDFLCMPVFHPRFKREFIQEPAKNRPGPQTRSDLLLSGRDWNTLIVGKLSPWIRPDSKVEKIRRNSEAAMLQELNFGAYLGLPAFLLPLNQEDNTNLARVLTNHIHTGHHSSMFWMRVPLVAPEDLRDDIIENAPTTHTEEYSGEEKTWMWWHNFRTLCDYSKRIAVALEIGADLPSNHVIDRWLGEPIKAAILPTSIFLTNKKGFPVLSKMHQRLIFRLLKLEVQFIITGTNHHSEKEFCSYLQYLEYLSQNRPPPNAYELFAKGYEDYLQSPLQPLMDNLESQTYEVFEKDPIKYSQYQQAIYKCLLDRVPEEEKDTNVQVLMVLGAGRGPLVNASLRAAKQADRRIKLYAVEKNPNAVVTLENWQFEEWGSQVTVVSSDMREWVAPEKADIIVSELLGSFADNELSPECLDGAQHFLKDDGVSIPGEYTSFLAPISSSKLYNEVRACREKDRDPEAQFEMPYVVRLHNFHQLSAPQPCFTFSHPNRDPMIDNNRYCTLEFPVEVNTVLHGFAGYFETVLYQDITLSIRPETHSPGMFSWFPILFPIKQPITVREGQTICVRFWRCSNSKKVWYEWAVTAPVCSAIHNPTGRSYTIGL
T1 sequence (Q9BQA1 whole entry partner): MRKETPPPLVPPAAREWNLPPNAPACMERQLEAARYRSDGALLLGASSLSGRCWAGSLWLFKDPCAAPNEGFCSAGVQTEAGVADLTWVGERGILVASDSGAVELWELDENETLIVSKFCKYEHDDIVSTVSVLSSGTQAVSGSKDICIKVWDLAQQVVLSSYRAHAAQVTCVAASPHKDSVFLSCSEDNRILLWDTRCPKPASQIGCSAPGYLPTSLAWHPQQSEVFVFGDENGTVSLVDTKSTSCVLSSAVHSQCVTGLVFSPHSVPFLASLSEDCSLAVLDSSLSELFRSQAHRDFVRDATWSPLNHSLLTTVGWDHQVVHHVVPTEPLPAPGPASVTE
Description: EXPERIMENTAL PROCEDURES IN VITRO ASSAY (ASSAY 1)
PRMT5-MEP50 enzyme was purchased from Charles River (Argenta). The enzyme complex was produced in insect cells (Sf9) infected simultaneously with two baculoviruses. One virus expresses full length human PRMT5 with Flag-tag at N-terminus, the second virus expresses full length MEP50 with His6-TEV cleavage at N-terminus. The protein was affinity purified using anti-Flag (M2) beads eluted with 3×FLAG peptide, followed by His-Select eluted with 0.5M imidazole. Eluted protein was then dialysed against tris-buffered saline (TBS) (pH 8.0) containing 20% glycerol and 3 mM dithiothreitol (DTT).
Full-length untagged human recombinant histone H2A (residues 1-130, Genbank Accession #NM_021052, MW=14.1 kDa) expressed in E. coli was purchased from Reaction Biology Corporation, Cat #HMT-11-146. Reagents used for making reaction buffer or stopping reaction were purchased including Tris base (Sigma Cat #T-1503), NaCl (Sigma Cat #RGF-3270), MgCl2 (Sigma Cat #M0250), DTT (Invitrogen Cat #15508-013) and Formic Acid (Riedel deHaen, Cat #33015)
High Throughput Mass Spectrometer Assay
PRMT5 catalyzes the sequential methylations of the terminal nitrogen atoms on the guanidine groups of arginine residues within proteins using co-substrate S-adenosyl-L-methionine (AdoMet, SAM), forming mono-methyl (MMA), symmetric-dimethyl arginine (sDMA) and S-adenosyl-L-homocysteine (AdoHcy, SAH). The enzyme activity was determined by following the product SAH formation using high throughput mass spectrometry (Agilent Rapidfire 300 System coupled to a Sciex 4000 series QTrapm triple-quad MS/MS). The reaction buffer was 20 mM Tris-HC, pH 8.5, 50 mM NaCl, 5 mM MgCl2 and 1 mM DTT. The reaction activity was stopped using 1% formic acid (final concentration).
The IC50 Studies were performed using eleven point dosing series made for each compound by serially diluted 1:2 in dimethyl sulfoxide (DMSO), with point 12 being a DMSO control. Compounds were first spotted to plates, and followed by addition of 2 μM SAM and 0.6 μM H2A (histone H2A) solution mixture. The same volume of enzyme solution was added to initiate the enzymatic reactions. The final concentrations of the reaction are at 1 μM SAM, 0.3 μM H2A and 10 nM enzyme. The reaction was incubated at 30° C. for 60 minutes (min) and then quenched by addition of formic acid to a final concentration of 1%. The inhibitions of SAH formation in the presence of compounds were calculated as a percentage of the control relative to the uninhibited reaction as a function of inhibitor concentration. The data were fit as follows: Y=Bottom+(Top−Bottom)/(1+10^((log IC50−X)*h))
where IC50 is the inhibitor concentration (same unit as X) at 50% inhibition and h is the Hill slope. Y is percent of inhibition, X is log of compound concentration. Bottom and Top are the plateaus in same units as Y.

A549 cells = assay: PD assay (Assay 2): inhibition of nuclear symmetric Arginine dimethylation (SYM10 immunohistochemistry) in A549 cells; type: cell-based; conditions: individual measurements shown; for IC50: Homo sapiens, A549, PD assay in A549 cells, read-out: pIC50 Assay 2 (converted); for pIC50 Assay 2: PD assay in A549 cells
Description: EXPERIMENTAL PROCEDURE PD ASSAY (ASSAY 2)
A549 cells (ATCC, Cat #CCL-185) were cultured in Dulbecco's Modified Eagle's Medium (DMEM) (Sigma, Cat #D5796), supplemented with 10% Fetal Calf Serum (FCS)(HyClone™, Cat #SV30160.03), 100 mM Sodium Pyruvate (Sigma, Cat #S8636), 200 mM L-Glutamine (Sigma, Cat #G7513) and 50 mg/mL Gentamycing (Gibco, Cat #15750-037).
Reagents used for buffers were purchased: Dulbecco's phosphate buffered saline (DPBS) without Ca/Mg (Sigma, Cat #D8537), phosphate buffered saline (PBS) 10× (Roche, Cat #11 666 789 001), Formalin solution 10% (Sigma, HT50-1-128-4L), MeOH 100% (Sigma, Cat #32213-2.5L), Triton X-100 (Acros, Cat #215680010), Bovine Serum Albumin (BSA) (Sigma, Cat #A2153), Alexa fluor 488 goat anti-rabbit antibody (Life Technologies, Cat #A11034), HCS CellMask Deep Red Stain (Life Technologies, Cat #H32721), Hoechst Stain (Life Technologies, Cat #33258), Anti-dimethyl-Arginine, sym (SYM10) antibody (Millipore, 07-412).
Immunohistochemistry Procedure
Cells were plated at 400 cells/40 μL/well in 384 well black plates μclear bottom (Perkin Elmer) and overnight incubated at 37° C., 5% CO2. The IC50 Studies were performed using nine point dosing series ranging from 10 μM to […] for each compound. 80 nL of the respective dilution of the compounds was added using the Labcyte POD 810 (Labcyte) reaching a final DMSO concentration of 0.2% in cell culture. After an incubation period of 48 h at 37° C. and 5% CO2, cells were fixed in 10% formalin solution for 15 min at r.t. and 20 min in ice-cold MeOH, after which they were washed 3× in DPBS. Subsequently, the cells were blocked for 1 h in blocking buffer (PBS+1% BSA and 0.5% Triton X-100) and incubated overnight at 4° C. with the SYM10 antibody diluted 1/2000 in blocking buffer. The cells were washed 3× with washing buffer (PBS+0.1% Triton X-100) and incubated with the Alexa fluor 488 goat anti-rabbit antibody diluted 1/200 in blocking buffer for 1 h at r.t. Subsequently, they were washed 3× with washing buffer and incubated for 30 min at r.t. with PBS containing a 1/5000 dilution of Hoechst Stain and a 1/5000 dilution of the HCS CellMask Deep Red Stain. After a final wash with PBS, the plates were imaged using the 10×W lens of the Opera® system (Perkin Elmer Life Sciences) using following settings (values in nm):
In the above equations, the following variable names are use: […]
In the above equations, the following controls were used for normalization: […]
Low control: minimum level of symmetrically dimethylated Arginines (cells treated with reference compound at 10 μM).
High control: maximum level of symmetrically dimethylated Arginines (DMSO treated cells).
IC50 and pIC50 (−log IC50) values were calculated using the appropriate software.
pIC50 values (Co. No. means compound number; n.d. means not determined).

| SMILES | IC50 (PRMT5-MEP50 enzyme) | IC50 (A549 cells) | pIC50 Assay 2 (A549 cells) |
| --- | --- | --- | --- |
| CN1CCC2(CC1)CCN(C[C@H]1O[C@@H](n3cnc4c(N)ncnc43)[C@H](O)[C@@H]1O)C2 [Compound 16] | 22400 nM | > 10000 nM | – |
| CN1CC2(CCN2C[C@H]2O[C@@H](n3cnc4c(N)ncnc43)[C@H](O)[C@@H]2O)C1 [Compound 18] | 8510 nM | > 10000 nM | – |
| Nc1ncnc2c1ccn2[C@@H]1O[C@H](CN2CCCC23CCNCC3)[C@@H](O)[C@H]1O [Compound 19] | 43.7 nM and 11.5 nM | – | 6.93 and 7.24 |
| Nc1ncnc2c1c(F)cn2[C@@H]1O[C@H](CN2CCCC23CCNCC3)[C@@H](O)[C@H]1O [Compound 24] | 11.7 nM | ~67.6 nM | – |
| C[C@@]1(O)[C@H](O)[C@@H](CN2CCCC23CCNCC3)O[C@H]1n1cnc2c(N)ncnc21 [Compound 27] | 1350 nM | > 10000 nM | – |
| Cc1nc(N)c2ccn([C@@H]3O[C@H](CN4CCCC45CCNCC5)[C@@H](O)[C@H]3O)c2n1 [Compound 28] | 26.3 nM | 1150 nM | – |
| Nc1ncnc2c1ccn2[C@@H]1O[C@H](CN2CC(F)(F)CC23CCNCC3)[C@@H](O)[C@H]1O [Compound 29] | 10.2 nM and 7.59 nM | ~60.3 nM | ~7.35 |
| Cc1nc(N)c2ccn([C@@H]3O[C@H](CN4CCCC45CCN(C)CC5)[C@@H](O)[C@H]3O)c2n1 [Compound 30] | 200 nM | 1740 nM | – |
| Nc1ncnc2c1ccn2[C@@H]1O[C@H](CN2CCOC3(CNC3)C2)[C@@H](O)[C@H]1O [Compound 31] | 39.8 nM | ~1450 nM | – |
| Nc1ncnc2c1ccn2[C@@H]1O[C@H](CN2CCOC3(CCCNC3)C2)[C@@H](O)[C@H]1O (some centres unmarked) [Compound 32] | 4470 nM | 9120 nM | – |
| Nc1ncnc2c1ccn2[C@@H]1O[C@H](CN2CCCC3(COCCN3)C2)[C@@H](O)[C@H]1O (some centres unmarked) [Compound 37] | 170 nM | 5370 nM | – |
| Nc1ncnc2c1ccn2[C@@H]1O[C@H](CN2CCC3(CNCCC3(F)F)C2)[C@@H](O)[C@H]1O (some centres unmarked) [Compound 38] | 1620 nM | 3890 nM | – |
| Nc1ncnc2c1ccn2[C@@H]1O[C@H](CN2CCCC3(CCNC3)C2)[C@@H](O)[C@H]1O (some centres unmarked) [Compound 40] | 6.31 nM | 407 nM | – |
| Nc1ncnc2c1ccn2[C@@H]1O[C@H](CN2CC(C(F)(F)F)CC23CCNCC3)[C@@H](O)[C@H]1O (some centres unmarked) [Compound 41] | 5750 nM | > 10000 nM | – |
| Nc1ncnc2c1ccn2[C@@H]1O[C@H](CN2CCCC3(CNC3)C2)[C@@H](O)[C@H]1O [Compound 45] | 83.2 nM | ~741 nM | – |
| NCCC1CN(C[C@H]2O[C@@H](n3ccc4c(N)ncnc43)[C@H](O)[C@@H]2O)CCO1 (some centres unmarked) [Compound 47] | 692 nM | > 10000 nM | – |
| NCC1CN(C[C@H]2O[C@@H](n3ccc4c(N)ncnc43)[C@H](O)[C@@H]2O)CCO1 (some centres unmarked) [Compound 48] | 145 nM | ~2570 nM | – |
| NC[C@H]1COCCN1C[C@H]1O[C@@H](n2ccc3c(N)ncnc32)[C@H](O)[C@@H]1O [Compound 49] | 120 nM | ~5130 nM | – |
| NCC1CCC(F)(F)CN1C[C@H]1O[C@@H](n2ccc3c(N)ncnc32)[C@H](O)[C@@H]1O (some centres unmarked) [Compound 50] | 44.7 nM | 1510 nM | – |
| NCC1CCCN(C[C@H]2O[C@@H](n3ccc4c(N)ncnc43)[C@H](O)[C@@H]2O)C1 (some centres unmarked) [Compound 51] | 21.4 nM | 1000 nM | – |
| NCC1CCCCN1C[C@H]1O[C@@H](n2ccc3c(N)ncnc32)[C@H](O)[C@@H]1O (some centres unmarked) [Compound 52] | 10.2 nM | ~1120 nM | – |

Other lines, results leading:

| IC50 (PRMT5-MEP50 enzyme) | IC50 (A549 cells) | pIC50 Assay 2 (A549 cells) | SMILES |
| --- | --- | --- | --- |
| 28.8 nM | 891 nM | – | Nc1ncnc2c1ccn2[C@@H]1O[C@H](CN2CCCC(N)C2)[C@@H](O)[C@H]1O (some centres unmarked) [Compound 53] |
| 1550 nM | > 10000 nM | – | Nc1ncnc2c1ccn2[C@@H]1O[C@H](CN2CCC(N)C2)[C@@H](O)[C@H]1O (some centres unmarked) [Compound 54] |
| 309 nM | 6170 nM | – | NCCC1CCN(C[C@H]2O[C@@H](n3ccc4c(N)ncnc43)[C@H](O)[C@@H]2O)C1 (some centres unmarked) [Compound 55] |
| 186 nM | ~10000 nM | – | NCC1CCN(C[C@H]2O[C@@H](n3ccc4c(N)ncnc43)[C@H](O)[C@@H]2O)C1 (some centres unmarked) [Compound 56] |
| 11.2 nM | 158 nM | – | NCC[C@@H]1CCCN1C[C@H]1O[C@@H](n2ccc3c(N)ncnc32)[C@H](O)[C@@H]1O [Compound 57] |
| 724 nM | ~6920 nM | – | NCC[C@H]1CCCN1C[C@H]1O[C@@H](n2cnc3c(N)ncnc32)[C@H](O)[C@@H]1O [Compound 58] |
| 44.7 nM | 2400 nM | – | NCC[C@@H]1CCCN1C[C@H]1O[C@@H](n2cnc3c(N)ncnc32)[C@H](O)[C@@H]1O [Compound 59] |
| 28.8 nM | 1150 nM | – | NCC1CCCN1C[C@H]1O[C@@H](n2ccc3c(N)ncnc32)[C@H](O)[C@@H]1O (some centres unmarked) [Compound 60] |
| 129 nM | > 10000 nM | – | Nc1nccc2c1ccn2[C@@H]1O[C@H](CN2CCCC23CCNCC3)[C@@H](O)[C@H]1O [Compound 61] |
| 501 nM | > 10000 nM | – | O[C@@H]1[C@H](O)[C@@H](CN2CCCC23CCNCC3)O[C@H]1n1cnc2cncnc21 [Compound 62] |
| 56.2 nM | 955 nM | – | CN1CCC2(CCCN2C[C@H]2O[C@@H](n3ccc4c(N)nc(Cl)nc43)[C@H](O)[C@@H]2O)CC1 [Compound 65] |
| 603 nM | 6760 nM | – | CN1CCC2(CCCN2C[C@H]2O[C@@H](n3ccc4c(N)nccc43)[C@H](O)[C@@H]2O)CC1 [Compound 66] |
| 1860 nM | ~6170 nM | – | O[C@@H]1[C@H](O)[C@@H](CN2CC(F)(F)CC23CCN(C2CC2)CC3)O[C@H]1n1ccc2c(Cl)ncnc21 [Compound 67] |
| 229 nM | ~1950 nM | – | Nc1ncnc2c([C@@H]3O[C@H](CN4CCCC45CCNCC5)[C@@H](O)[C@H]3O)cnn12 [Compound 68] |
